Earlier results, collected in patent US20110029296A1, “Metabolic analysis apparatus and metabolic analysis method” (FUJITSU LIMITED, priority 2009, published 2011).

Target: CYP2E1 (Homo sapiens, UniProt P05181)
Sequence (P05181 whole entry, species assumed): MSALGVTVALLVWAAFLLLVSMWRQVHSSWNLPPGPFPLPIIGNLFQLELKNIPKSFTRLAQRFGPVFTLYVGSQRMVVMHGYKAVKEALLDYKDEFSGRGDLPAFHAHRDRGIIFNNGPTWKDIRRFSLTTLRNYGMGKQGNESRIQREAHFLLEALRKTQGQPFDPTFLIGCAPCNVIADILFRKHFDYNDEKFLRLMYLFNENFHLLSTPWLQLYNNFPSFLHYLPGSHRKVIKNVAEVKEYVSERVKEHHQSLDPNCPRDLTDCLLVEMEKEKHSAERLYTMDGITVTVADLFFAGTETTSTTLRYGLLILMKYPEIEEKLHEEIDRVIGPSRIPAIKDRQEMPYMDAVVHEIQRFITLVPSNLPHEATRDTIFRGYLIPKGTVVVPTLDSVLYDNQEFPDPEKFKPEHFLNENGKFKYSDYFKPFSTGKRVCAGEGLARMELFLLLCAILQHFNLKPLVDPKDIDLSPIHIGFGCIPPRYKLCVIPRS

In the case of `Nc1cc2c3ccccc3ccc2c2ccccc12` [6-aminochrysene], the “metabolism by CYP2E1” value (forms a complex with CYP2E1) is given as “not metabolized by CYP2E1” and the “effect on the metabolic reaction of CYP2E1” value (inhibition by the amino group) is given as “inhibitor which inhibits the metabolic reaction of CYP2E1”.
